One assay deals with sigma receptor (Rattus norvegicus, UniProt Q9R0C9). It is filed as binding, male Sprague-Dawley rats. The method, then: To determine the effects of the compounds in a sigma receptor assay, crude membrane preparations were prepared as follows. Brains from male Sprague-Dawley rats were homogenized in 10 volumes (wt/vol) of 0.32 M sucrose, using a Polytron grinder. The homogenate was centrifuged at 900 X G for 10 minutes at 4°C. The supernatant was collected and centrifuged at 22,000 X g for 20 minutes at 4°C. The pellet was resuspended in 10 volumes of 50 mM Tris/HCl buffer (pH 7.4) and centrifuged at 22,000 X g for 20 minutes at 4°C. The pellet was resuspended in 5 mM Tris/HCl buffer (pH 7.4) to give a final concentration of 250 mg/ml of the crude material. Incubation tubes were prepared in triplicate and contained 0.1 ml of tissue suspension, 2 nM of [³H]-(+)-1-propyl-3-(3-hydroxyphenyl)piperidine {[³H]-3-(+)-PPP}, and varying concentrations of the displacing ligand (0.1-1000 nM) in a final volume of 0.5 ml. After a 1 hr incubation at room temperature, the contents of the test tubes were filtered through GS filter paper which had been presoaked for at least 2 hours in 0.05% polyethyleneimine. The test tubes were rinsed three times with Tris/HCl buffer. Radioactivity on the filters was determined using […] [Biochem. Pharmacol., 22, 3099-3108, 1973].

For assay [1], the system named is apomorphine-induced climbing. The experiment in a line: Blockade of apomorphine-induced climbing. The class given is in vivo, Swiss-Webster mice. The settings on record: Mus musculus; mice, i.p. or s.c. pretreatment; 2 mg/kg apomorphine s.c.; rated at 10 and 20 minutes; read-out: Blockade of Apomorphine-induced Climbing ED₅₀. The method, then: Compounds of the invention were evaluated for their ability to block apomorphine-induced climbing. The evaluation of the compounds followed the method outlined by Protais [Psychopharmacol., 50, 1-6, 1976]. Swiss-Webster mice, weighing 20-25 g, are pretreated with the compounds of the invention by i.p. or s.c. administration at various times before 2 mg/kg apomorphine is administered s.c in a volume of 1 ml/kg. All test compounds are administered in a volume of 10 ml/kg. Mice are rated at 10 and 20 minutes after apomorphine administration using the following rating scale: (0) forepaws on the floor, (1) forefeet holding the bars, and (2) four paws holding bars. Dose-response curves are analyzed by a computerized Finney assay [Statistical Methods in Biological Assays, 2nd Edn., Hatner Pub. Co., New York (1964)].

The mark [2] stands for this setting: read-out: Ki apparent (nM) (units ± SEM); rat brain membranes, 2 nM [³H]-3-(+)-PPP, 1 hr at room temperature, displacing ligand 0.1-1000 nM.

Read-outs that look alike come from different tables or passages of the source.

Ki and ED50 data for six compounds are collected here from patent publication EP0405436B1, “Dihetero nitrogen-containing cycloheteroethanoanthracene derivatives as antipsychotic agents” (G.D. Searle & Co., priority 1989, dated 1991).

sigma receptor, sequence (Q9R0C9 whole entry): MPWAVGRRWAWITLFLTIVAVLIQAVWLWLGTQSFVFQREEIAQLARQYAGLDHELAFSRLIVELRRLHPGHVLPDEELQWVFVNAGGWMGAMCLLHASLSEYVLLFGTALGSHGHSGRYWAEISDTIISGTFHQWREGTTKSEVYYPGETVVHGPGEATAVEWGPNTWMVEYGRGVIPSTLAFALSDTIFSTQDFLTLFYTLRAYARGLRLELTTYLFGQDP

In the case of `CN1CCN(C(=O)C2CC3c4ccccc4C2c2ccccc23)CC1` (stereo not drawn) [Compound No. 5, reference compound], the Ki on sigma receptor (rat brain membranes, 2 nM [³H]-3-(+)-PPP, 1 hr at room temperature, displacing ligand 0.1-1000 nM; read-out: Ki apparent (nM) (units ± SEM)) was above 1000 nM.
Consider `CN1CCN(CC2CC3c4ccccc4C2c2ccccc23)CC1` (stereo not drawn) [Compound No. 1, 4-[(9,10-Dihydro-9,10-ethanoanthracenyl)methyl]-1-methylpiperazine], for which the Ki on sigma receptor (setting [2]) was found to be 120 ± 20 nM. In addition, in assay [1], the ED50 stood at 1 mg/kg.
On to `c1ccc(CN2CCN(CC3CC4c5ccccc5C3c3ccccc34)CC2)cc1` (stereo not drawn) [Compound No. 6, 4-[(9,10-Dihydro-9,10-ethanoanthracenyl)methyl]-1-benzylpiperazine], for which the Ki on sigma receptor (setting [2]) came to 98 ± 18 nM. The ED50 in assay [1] is 10 mg/kg.
As to `c1cnc(N2CCN(CC3CC4c5ccccc5C3c3ccccc34)CC2)nc1` (stereo not drawn) [Compound No. 3, 4-[(9,10-Dihydro-9,10-ethanoanthracenyl)methyl]-1-(2-pyrimidyl)piperazine], the Ki at sigma receptor (setting [2]) is above 1000 nM.
For `OCCN1CCN(CC2CC3c4ccccc4C2c2ccccc23)CC1` (stereo not drawn) [Compound No. 2, 4-[(9,10-dihydro-9,10-ethanoanthracenyl)methyl]-1-(2-hydroxyethyl)-piperazine], the Ki on sigma receptor (setting [2]) came out at 21 ± 6 nM. For the same compound, in assay [1], the ED50 was found to be 1 mg/kg.
Regarding `c1ccc2c(c1)C1CC(CN3CCN4CCCC4C3)C2c2ccccc21` (stereo not drawn) [Compound No. 4, 4-[(9,10-dihydro-9,10-ethanoanthracenyl)methyl]-1,4-diazabicyclo[4.3.0]nonane], the Ki on sigma receptor (setting [2]) was found to be 20 ± 3 nM.
